Assay results taken from ChEMBL document CHEMBL4130589, “Synthesis of Novel Selenides Bearing Benzenesulfonamide Moieties as Carbonic Anhydrase I, II, IV, VII, and IX Inhibitors” (ACS Med Chem Lett, 2017).

Biological target: Carbonic anhydrase 9 (Homo sapiens, UniProt Q16790)
Assay: Inhibition of recombinant human carbonic anhydrase 9 incubated for 15 mins by stopped flow CO2 hydrase assay

| SMILES | Ki [nM] |
| --- | --- |
| N#C[Se]c1ccc(S(N)(=O)=O)cc1 | 9.3 |
| CC(C)OCC(O)C[Se]c1ccc(S(N)(=O)=O)cc1 (stereo not drawn) | 15.9 |
| NS(=O)(=O)c1ccc([Se][Se]c2ccc(S(N)(=O)=O)cc2)cc1 | 2.7 |
| Cc1ccc(S(=O)(=O)N[C@H](C[Se]c2ccc(S(N)(=O)=O)cc2)C(C)C)cc1 | 10.1 |
| C=C(C)[C@@H]1CCC(C)(O)C([Se]c2ccc(S(N)(=O)=O)cc2)C1 (stereo partly drawn) | 2.4 |
| CC(C)[C@@H](C[Se]c1ccc(S(N)(=O)=O)cc1)NC(=O)OC(C)(C)C | 2.3 |
| CCCCC(O)C[Se]c1ccc(S(N)(=O)=O)cc1 (stereo not drawn) | 5.6 |
| Cc1ccc(S(=O)(=O)N[C@H](C[Se]c2ccc(S(N)(=O)=O)cc2)Cc2ccccc2)cc1 | 2.4 |
| C=CCOCC(O)C[Se]c1ccc(S(N)(=O)=O)cc1 (stereo not drawn) | 11.9 |
| NS(=O)(=O)c1ccc([Se]C2CCCCC2O)cc1 (stereo not drawn) | 8.3 |
| CC(C)[C@H](N)C[Se]c1ccc(S(N)(=O)=O)cc1 | 2.4 |
| NS(=O)(=O)c1ccc([Se]CC(O)CBr)cc1 (stereo not drawn) | 6.5 |
| NS(=O)(=O)c1ccc([Se]CC(O)COCc2ccccc2)cc1 (stereo not drawn) | 10.1 |
